The target in the experiment is T1, human recombinant 5-Lipoxygenase (Homo sapiens, UniProt P09917).
T1 sequence (P09917 1-674): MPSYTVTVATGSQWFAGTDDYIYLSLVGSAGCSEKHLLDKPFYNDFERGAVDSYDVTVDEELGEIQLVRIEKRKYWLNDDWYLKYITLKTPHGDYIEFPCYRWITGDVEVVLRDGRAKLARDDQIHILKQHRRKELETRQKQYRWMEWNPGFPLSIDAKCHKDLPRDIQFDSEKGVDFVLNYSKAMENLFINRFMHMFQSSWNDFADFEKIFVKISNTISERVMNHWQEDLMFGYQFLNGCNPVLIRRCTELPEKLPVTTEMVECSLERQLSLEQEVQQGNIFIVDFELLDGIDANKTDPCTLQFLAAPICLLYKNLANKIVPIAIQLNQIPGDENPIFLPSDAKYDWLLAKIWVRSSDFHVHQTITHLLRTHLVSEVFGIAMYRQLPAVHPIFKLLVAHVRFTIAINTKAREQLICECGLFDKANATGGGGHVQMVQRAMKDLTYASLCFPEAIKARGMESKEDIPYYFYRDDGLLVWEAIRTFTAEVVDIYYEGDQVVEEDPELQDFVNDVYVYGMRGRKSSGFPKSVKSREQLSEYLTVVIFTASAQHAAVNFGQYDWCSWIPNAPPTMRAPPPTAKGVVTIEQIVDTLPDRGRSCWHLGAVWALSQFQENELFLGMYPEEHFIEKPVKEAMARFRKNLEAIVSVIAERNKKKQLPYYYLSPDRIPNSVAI
In words: 5-Lipoxygenase Enzyme Assay. Format: biochemical. Conditions: 70 μM arachidonic acid, 10 minute incubation at room temperature, FOX reagent, absorbance at 620 nm; read-out: inhibition of 5-Lipoxygenase with an IC50. An excerpt: This procedure was used for measuring the enzymatic activity of human recombinant 5-Lipoxygenase using a colorimetric method based on the ferric oxidation of xylenol orange.
• 96 well flat bottom microfilter plates (VWR, Catalog # 62402-933 9295) • Lipoxygenase screening assay buffer (Cayman, Catalog # 760710) • Human recombinant 5-Lipoxygenase (Cayman, Catalog # 60402) • Arachidonic Acid (Sigma, Catalog # A3555) • Xylenol orange tetra sodium salt (Aldrich, Catalog # 227854) • Iron (II) sulfate heptahydrate (Sigma, Catalog # F7002) • Sulfuric acid (95-98%) [18 M] • Methanol Procedure
Human recombinant 5-Lipoxygenase (Cayman Cat # 60402) was used in this assay. The test compound and/or vehicle was added to 0.5 μL 5-Lipoxygenase in 50 mM Tris-HCl buffer, pH 7.4. The reaction was initiated by addition of 70 μM arachidonic acid in Tris-HCl buffer, pH 7.4, and terminated after a 10 minute incubation at room temperature by addition of FOX reagent (25 mM sulfuric acid, 100 μM xylenol orange, 100 μM iron (II) sulfate, methanol:water 9:1). The yellow color of acidified xylenol orange was converted to a blue color by the lipid hydroperoxide-mediated oxidation of Fe^2+ ions and the interaction of the resulting Fe^3+ ions with the dye. The complex was allowed to form during a 1 hour incubation at room temperature with shaking. Absorbance of the Fe^3+ complex was then measured at […] using a spectrophotometer.
Negative controls contained enzyme during the incubation step but substrate was not added until after the FOX reagent. Compounds were screened at 5 concentrations in triplicate starting at 10 μM

The record followed here is patent publication US7576094B2, “Spiro derivatives as lipoxygenase inhibitors” (Eli Lilly and Company, priority 2004, dated 2009).

Take `CONC1CC2(CCC2)Oc2c(C)c(C)c(O)c(C)c21` (stereo not drawn) [4-(methoxyamino)-5,7,8-trimethyl-3,4-dihydrospiro[chromene-2,1′-cyclobutan]-6-ol]: the half-maximal inhibitory concentration (IC50) (in general, the concentration needed to halve the response being measured) was less than 300 nM.
As to `Cc1c(O)cc(C(C)C)c2c1CCC1(CCC1)O2` [8-isopropyl-5-methyl-3,4-dihydrospiro[chromene-2,1′-cyclobutan]-6-ol], the IC50 was less than 300 nM.
The result for `Cc1c(O)cc2c(c1C)N(c1ccc(O)cc1)CC1(CCC1)C2` [1′-(4-hydroxyphenyl)-7′,8′-dimethyl-2′,4′-dihydro-1′H-spiro[cyclobutane-1,3′-quinolin]-6′-ol] reads less than 300 nM.
The figure for `CCO/N=C1\CC2(CCC2)Oc2cc(C)c(O)c(C)c21` [(4E)-6-hydroxy-5,7-dimethylspiro[chromene-2,1′-cyclobutan]-4(3H)-one O-ethyloxime] is less than 300 nM.
As to `CCONC1CC2(CCC2)Oc2c(C)c(C)c(O)c(CC)c21` (stereo not drawn) [4-(ethoxyamino)-5-ethyl-7,8-dimethyl-3,4-dihydrospiro[chromene-2,1′-cyclobutan]-6-ol], the IC50 was less than 300 nM.
As to `COC(=O)c1ccc(CN2c3cc(C)c(O)c(C)c3CCC23CCC3)cc1` [methyl 4-((6′-hydroxy-5′,7′-dimethyl-3′,4′-dihydro-1′H-spiro[cyclobutane-1,2′-quinoline]-1′-yl)methyl)benzoate], the IC50 is less than 300 nM.
The figure for `CCc1cc2c(c(CC)c1O)C(O)C1(CCC1)CO2` (stereo not drawn) [5,7-diethylspiro[chroman-3,1′-cyclobutane]-4,6-diol] is less than 300 nM; for `Cc1c(C)c2c(c(C)c1OC(=O)CN(C)C)CCC1(CCC1)O2` [5,7,8-trimethyl-3,4-dihydrospiro[chromene-2,1′-cyclobutan]-6-yl (dimethylamino)acetate] it is less than 300 nM; for `CCCc1ccc([S+](=O)([O-])NCCN2CC3(CCC3)Cc3cc(O)c(C)c(C)c32)cc1` [N-(2-(6′-hydroxy-7′,8′-dimethyl-2′,4′-dihydro-1′H-spiro[cyclobutane-1,3′-quinoline]-1′-yl)ethyl)-4-propylbenzenesulfonamide] it is less than 300 nM.
Consider `Cc1c(C)c2c(c(C)c1OC(=O)CN(C)C)CCC1(CCC1)S2` [5′,7′,8′-trimethyl-3′,4′-dihydrospiro[cyclobutane-1,2′-thiochromen]-6′-yl (dimethylamino)acetate], for which the IC50 is less than 300 nM.
The result for `Cc1c(C)c2c(c(C)c1OC(=O)n1ccnc1)CCC1(CCC1)O2` [5,7,8-trimethyl-3,4-dihydrospiro[chromene-2,1′-cyclobutan]-6-yl 1H-imidazole-1-carboxylate] reads less than 300 nM; that for `Cc1c(C)c2c(c(C)c1O)C(CN)=CC1(CCC1)O2` [4-(aminomethyl)-5,7,8-trimethylspiro[chromene-2,1′-cyclobutan]-6-ol], less than 300 nM; that for `CON(C)C1CC2(CCC2)Oc2cc(C)c(O)c(C)c21` (stereo not drawn) [4-[methoxy(methyl)amino]-5,7-dimethyl-3,4-dihydrospiro[chromene-2,1′-cyclobutan]-6-ol], less than 300 nM.
The figure for `Cc1c2c(c(C)c(Cl)c1OC(=O)c1cccnc1)OC1(CCC1)CC2` [7-chloro-5,8-dimethyl-3,4-dihydrospiro[chromene-2,1′-cyclobutan]-6-yl nicotinate] is less than 300 nM; for `Cc1c(O)cc2c(c1C)N(c1ccc(S(C)(=O)=O)cc1)CC1(CCC1)C2` [7′,8′-dimethyl-1′-(4-(methylsulfonyl)phenyl)-2′,4′-dihydro-1′H-spiro[cyclobutane-1,3′-quinolin]-6′-ol] it is less than 300 nM.
The result for `CCO/N=C1/CC2(CCC2)Oc2cc(C)c(O)c(C)c21` [(4Z)-6-hydroxy-5,7-dimethylspiro[chromene-2,1′-cyclobutan]-4(3H)-one O-ethyloxime] reads less than 300 nM; that for `Cc1c(O)cc2c(c1C)N(c1ccc(N3CCNCC3)nc1)CC1(CCC1)C2` [7′,8′-dimethyl-1′-(6-(piperazin-1-yl)pyridin-3-yl)-2′,4′-dihydro-1′H-spiro[cyclobutane-1,3′-quinolin]-6′-ol], less than 300 nM.
Turning to `CCc1c(O)c(C)c(C)c2c1C(NOC)CC1(CCC1)O2` (stereo not drawn) [5-ethyl-4-(methoxyamino)-7,8-dimethyl-3,4-dihydrospiro[chromene-2,1′-cyclobutan]-6-ol], the half-inhibitory concentration (IC50) is less than 300 nM.
The result for `CC(=O)NC1CC2(CCC2)Oc2c(C)c(C)c(O)c(C)c21` (stereo not drawn) [N-(6-hydroxy-5,7,8-trimethyl-3,4-dihydrospiro[chromene-2,1′-cyclobutan]-4-yl)acetamide] reads less than 300 nM.
The result for `CCCC(=O)NC1CC2(CCC2)Oc2c(C)c(C)c(O)c(C)c21` (stereo not drawn) [N-(6-hydroxy-5,7,8-trimethyl-3,4-dihydrospiro[chromene-2,1′-cyclobutan]-4-yl)butanamide] reads less than 300 nM; that for `CO/N=C1\CC2(CCC2)Oc2cc(C)c(O)c(C)c21` [6-hydroxy-5,7-dimethylspiro[chromene-2,1′-cyclobutan]-4(3H)-one O-methyloxime], less than 300 nM.
The result for `Cc1cc2c(c(C)c1O)CCC1(CCC1)N2Cc1ccc(Cl)cc1` [1′-(4-chlorobenzyl)-5′,7′-dimethyl-3′,4′-dihydro-1′H-spiro[cyclobutane-1,2′-quinolin]-6′-ol] reads less than 300 nM; that for `CCONC1CC2(CCC2)Oc2cc(CC)c(O)c(CC)c21` (stereo not drawn) [4-(ethoxyamino)-5,7-diethyl-3,4-dihydrospiro[chromene-2,1′-cyclobutan]-6-ol], less than 300 nM.
On to `CONCc1c2c(c(C(C)C)c(O)c1C(C)C)CCC1(CCC1)O2` [5,7-diisopropyl-8-[(methoxyamino)methyl] 3,4-dihydrospiro[chromene-2,1′-cyclobutan]-6-ol], for which the IC50 was less than 300 nM.
With `CC(C)c1c(O)c(C(C)C)c2c(c1C=O)OC1(CCC1)CC2` [6-hydroxy-5,7-diisopropyl-3,4-dihydrospiro[chromene-2,1′-cyclobutane]-8-carbaldehyde], the half-maximal inhibitory concentration (IC50) was less than 300 nM.
The result for `COCc1c(C)c(O)c(C)c2c1OC1(CCC1)CC2` [8-(methoxymethyl)-5,7-dimethyl-3,4-dihydrospiro[chromene-2,1′-cyclobutan]-6-ol] reads less than 300 nM; that for `Cc1c(C)c2c(c(C)c1O)C(O)C1(CCC1)CN2c1ccc(Cl)cc1` (stereo not drawn) [1′-(4-chlorophenyl)-5′,7′,8′-trimethyl-2′,4′-dihydro-1′H-spiro[cyclobutane-1,3′-quinoline]-4′,6′-diol], less than 300 nM; that for `Cc1cc2c(c(C)c1O)C(OC(C)C)CC1(CCC1)O2` (stereo not drawn) [4-isopropoxy-5,7-dimethyl-3,4-dihydrospiro[chromene-2,1′-cyclobutan]-6-ol], less than 300 nM.
The figure for `COC(=O)c1ccc(N2CC3(CCC3)Cc3cc(O)c(C)c(C)c32)cc1` [methyl 4-(6′-hydroxy-7′,8′-dimethyl-2′,4′-dihydro-1′H-spiro[cyclobutane-1,3′-quinoline]-1′-yl)benzoate] is less than 300 nM; for `COC(=O)CN1CC2(CC2)Cc2cc(O)c(C)c(C)c21` [methyl 2-(6′-hydroxy-7′,8′-dimethyl-2′,4′-dihydro-1′H-spiro[cyclopropane-1,3′-quinoline]-1′-yl)acetate] it is less than 300 nM.
